# Read-outs that look alike come from different tables or passages of the source.
# Key:
# carrageenan edema = assay: inhibition test of carrageenan edema employing a foot-pad edema method; type: in vivo, male Wister rats; settings: for ED50: Rattus norvegicus, read-out: ED50 for inhibition for carrageenan edema; for anti-inflammatory activity compared with IM: relative to IM
# Excerpt: Anti-inflammatory action was investigated according to the method of Winter et al [cf. Pro. Soc. Exp. Biol. Med., 111, 544 (1962)] by the inhibition test of carrageenan edema employing a foot-pad edema method using carrageenan as an irritating agent and male Wister rats weighing 130 to 170 g.
# in vivo [1] = settings: rat, po
# Description: Gastrointestinal ulcer formation action, which is a principal side effect of an acid anti-inflammatory drug, was investigated according to the method of Okabe et al [cf. […] The compounds of the present invention, IM, DF and acemethacin were suspended in 5% Tween-80 solution and administered orally 1 ml/100 g body weight to the rats, respectively. At 6 hrs after the administration, the state of glandstomach was observed by means of a dissecting microscope whether the ulcer having a diameter more than 1 mm was generated or not.
# [2] = Rate of hydrolysis in rat plasma; type: in vitro ADME; settings: in 1 ml of plasma rat (37° C., incubation for 1 hr)
# Description: **in 1 ml of plasma rat (37° C., incubation for 1 hr)
# [3] = potentiating effect on thiopental-induced sleep in mice; type: in vivo, male ddY mice; settings: mouse, in vivo, po
# Description: (§1) Effect on central nervous system, which is another side effect of IM, was investigated according to the potentiating effect on thiopental-induced sleep in mice as follows: Male ddY mice weighing 20 to 24 g were subjected to fasting for 15 hrs. […] At 30 mins after the administration, thiopental sodium was injected intravenously to each of the mice in an amount of 35 mg/l kg body weight, and then, the sleeping time was observed. When the sleeping time of the mice to which the Test Compound was administered was longer than 2 times that of the control to which only Tween-80 was administered, the given Test Compound was judged to be effective on thiopental-induced sleep potentiating effect.
# thiopental-induced sleep = assay: as above; type: in vivo, male ddY mice; settings: for potentiating effect on thiopental-induced sleep relative to IM: mouse, in vivo
# Description: as §1
# in vivo [4] = settings: mouse, po
# ultraviolet erythema = assay: inhibition action for ultraviolet erythema; type: in vivo, male Hartley guinea pigs; design: 2 hs after the irradiation, Average ± standard error / 3 hs after the irradiation, Average ± standard error / 5 hs after the irradiation, Average ± standard error: scale not given here; 2 hs after the irradiation, Rate for inhibition / 3 hs after the irradiation, Rate for inhibition / 5 hs after the irradiation, Rate for inhibition: unit not given here; settings: guinea pigs; for 2 hs after the irradiation, Average ± standard error / 2 hs after the irradiation, Rate for inhibition: 2 hs after irradiation; for 3 hs after the irradiation, Average ± standard error / 3 hs after the irradiation, Rate for inhibition: 3 hs after irradiation; for 5 hs after the irradiation, Average ± standard error / 5 hs after the irradiation, Rate for inhibition: 5 hs after irradiation; for duration of the pharmacological effect: ultraviolet erythema, oral
# Description: With respect to Compounds 1 to 3, 15 and 21 which are especially useful as an anti-inflammatory drug, IM and DF, inhibition action for ultraviolet erythema was investigated according to the method of Adames et al [cf. Nature, London, 181, 773 (1958)] using guinea pigs as follows: Male Hartley guinea pigs weighing 250 to 350 g were shaved at their sides the day before and two hrs before the ultraviolet irradiation. To the guinea pigs were administered orally Compounds 1 to 3, 15 and 21, IM and DF in amounts as described in Table 2, respectively. To the control group was administered orally only Tween-80. At 1 hr after the time of administration, the guinea pigs were irradiated at their shaved sides by ultraviolet beam for 40 seconds.
# The reaction of the ultraviolet erythema was evaluated at 2 hrs, 3 hrs and 5 hrs after irradiation according to the method of Winder et al [cf. Arch. Int. Pharmacodyn., 116, 261 (1958)]. […] Compounds 1 and 2 show a duration of the pharmacological effect over 5 hrs, contrary to that IM has a duration of 2 hrs.
# [5] = male Wister rats, foot-pad edema
SMILES,ED50 (carrageenan edema; [5]) [mg/kg],TD50 at 6 h (in vivo [1]) [mg/kg],metabolised at 1 h [2] [%],ED50 [3] [mg/kg],potentiating effect on thiopental-induced sleep relative to IM (thiopental-induced sleep),LD50 (in vivo [4]) [mg/kg],"2 hs after the irradiation, Average ± standard error (ultraviolet erythema; 3 mg/kg orally)","2 hs after the irradiation, Rate for inhibition (ultraviolet erythema; 3 mg/kg orally)","3 hs after the irradiation, Average ± standard error (ultraviolet erythema; 3 mg/kg orally)","3 hs after the irradiation, Rate for inhibition (ultraviolet erythema; 3 mg/kg orally)","5 hs after the irradiation, Average ± standard error (ultraviolet erythema; 3 mg/kg orally)","5 hs after the irradiation, Rate for inhibition (ultraviolet erythema; 3 mg/kg orally)","2 hs after the irradiation, Average ± standard error (ultraviolet erythema; 10 mg/kg orally)","2 hs after the irradiation, Rate for inhibition (ultraviolet erythema; 10 mg/kg orally)","3 hs after the irradiation, Average ± standard error (ultraviolet erythema; 10 mg/kg orally)","3 hs after the irradiation, Rate for inhibition (ultraviolet erythema; 10 mg/kg orally)","5 hs after the irradiation, Average ± standard error (ultraviolet erythema; 10 mg/kg orally)","5 hs after the irradiation, Rate for inhibition (ultraviolet erythema; 10 mg/kg orally)",ED50 (carrageenan edema) [mg/kg],duration of the pharmacological effect (ultraviolet erythema),further results
"C/C=C/C(=O)OC(C)OC(=O)Cc1c(C)n(C(=O)c2ccc(Cl)cc2)c2ccc(OC)cc12 (stereo not drawn) [Compound 10, 1-(Crotonoyloxy)ethyl[1-(p-chlorobenzoyl)-5-methoxy-2-methyl-3-indolyl]acetate]",7,20,88.2,261,1/2.5,65,,,,,,,,,,,,,,,
"COc1ccc2c(c1)c(CC(=O)OCCOC(C)=O)c(C)n2C(=O)c1ccc(Cl)cc1 [Compound 3, 2-(Acetoxy)ethyl[1-(p-chlorobenzoyl)-5-methoxy-2-methyl-3-indolyl]acetate]",6,15,97.3,600,1/5.7,65,0.5 ± 0.224,81.3,2.5 ± 0.224,11.7,2.83 ± 0.167,0,0.67 ± 0.333,74.9,2.3 ± 0.211,18.7,2.50 ± 0.224,11.7,,,
"COc1ccc2c(c1)c(CC(=O)O)c(C)n2C(=O)c1ccc(Cl)cc1 [IM, indomethacin, reference compound]",,,,205,,31.5,2.17 ± 0.307,18.7,2.5 ± 0.224,11.7,2.83 ± 0.167,0,1.33 ± 0.217,50.2,2.83 ± 0.167,0,3.0 ± 0,0,5.5,2 hrs,TD50 at 6 h (in vivo [1]; in vivo): 8 mg/kg
"O=C(O)Cc1ccccc1Nc1c(Cl)cccc1Cl [DF, diclofenac, reference compound]",,,,,,,1.17 ± 0.307,56.2,2.17 ± 0.401,23.3,2.67 ± 0.211,5.7,1.17 ± 0.307,56.2,2.50 ± 0.342,11.7,2.83 ± 0.167,0,15,,"potentiating effect on thiopental-induced sleep (in words) (thiopental-induced sleep; mice, oral): did not show the potentiating effect"
"COc1ccc2c(c1)c(CC(=O)OCOC(=O)C=C(C)C)c(C)n2C(=O)c1ccc(Cl)cc1 [Compound 2, 3,3-Dimethylacryloyloxymethyl[1-(p-chlorobenzoyl)-5-methoxy-2-methyl-3-indolyl]acetate]",6,20,78,,,67,1.83 ± 0.297,31.5,1.83 ± 0.207,35.3,2.0 ± 0.174,29.3,0.83 ± 0.241,68.9,0.83 ± 0.241,70.7,1.0 ± 0.369,64.7,,over 5 hrs,anti-inflammatory activity compared with IM (carrageenan edema): equal anti-inflammatory activity to IM
"C/C=C/C(=O)OCOC(=O)Cc1c(C)n(C(=O)c2ccc(Cl)cc2)c2ccc(OC)cc12 [Compound 1, Crotonoyloxymethyl[1-(p-chlorobenzoyl)-5-methoxy-2-methyl-3-indolyl]acetate]",6,15,88.9,455,1/4.3,105,1.50 ± 0.337,43.8,2.08 ± 0.193,26.5,1.92 ± 0.193,32.2,1.17 ± 0.322,56.2,1.58 ± 0.288,44.2,1.92 ± 0.229,32.2,,over 5 hrs,anti-inflammatory activity compared with IM (carrageenan edema): equal anti-inflammatory activity to IM

# — patent US4603217A, “Ester substituted alkyl-2-(2,6-dichloroanilino)phenyl acetates” (priority 1983, dated 1986)
